Measurements taken from ChEMBL document CHEMBL3763063, “Novel 4-anilinoquinazoline derivatives featuring an 1-adamantyl moiety as potent EGFR inhibitors with enhanced activity against NSCLC cell lines” (Eur J Med Chem, 2016).
Activity calls are given as the source filed them. The calls are words filed in the database; no cut-off is given here.

Assays:
[1] = molecular target: Epidermal growth factor receptor (Homo sapiens, UniProt P00533);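 further: recombinant wild-type human EGFR cytoplasmic domain, inhibition measured as decrease in autophosphorylation via Z'-Lyte readout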
Description: Inhibition of wild type recombinant human EGFR assessed as reduction in autophosphorylation of cytoplasmic domain by Z'-Lyte assay

[2] = molecular target: Epidermal growth factor receptor (Homo sapiens, UniProt P00533, L858R/T790M); type: protein assay;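 further: recombinant enzyme, cytoplasmic domain autophosphorylation read out by Z'-Lyte assay, IC50 reflects decrease in autophosphorylation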
Description: Inhibition of recombinant human EGFR L858R/T790M double mutant assessed as reduction in autophosphorylation of cytoplasmic domain by Z'-Lyte assay

[3] = tested on: Epidermal growth factor receptor (Homo sapiens), P00533 [L858R,T790M]; assay: Potency index, ratio of gefitinib IC50 to compound IC50 for inhibition of recombinant human EGFR L858R/T790M double mutant; type: protein assay
[4] = tested on: A-431; assay: cells; type: functional, cell-based; conditions: Homo sapiens, A-431, 72 h;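 further: loss of viability in A431 cells carrying wild-type EGFR, read out by MTT, antiproliferative effect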
Description: Antiproliferative activity against human A431 cells harboring wild type EGFR assessed as reduction in cell viability after 72 hrs by MTT assay

[5] = Antiproliferative activity against human HCC827 cells harboring EGFR E746 to A750 deletion mutant assessed as reduction in cell viability after 72 hrs by MTT assay; type: functional, cell-based; conditions: HCC827, 72 h
[6] = tested on: NCI-H1975; assay: cells; type: functional, cell-based; conditions: Homo sapiens, NCI-H1975, 72 h
Description: Antiproliferative activity against human NCI-H1975 cells harboring EGFR L858R/T790M double mutant assessed as reduction in cell viability after 72 hrs by MTT assay

[7] = tested on: A549; assay: cells; type: functional, cell-based; conditions: Homo sapiens, A549, 72 h
Description: Antiproliferative activity against human A549 cells harboring K-ras mutation assessed as reduction in cell viability after 72 hrs by MTT assay

[8] = tested on: MCF7; assay: cells; type: functional, cell-based; conditions: Homo sapiens, MCF7, 72 h;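 further: antiproliferative effect measured by MTT assay in EGFR-overexpressing MCF7 cells, with IC50 based on the drop in viable cells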
Description: Antiproliferative activity against human MCF7 cells overexpressing EGFR assessed as reduction in cell viability after 72 hrs by MTT assay

[9] = tested on: Epidermal growth factor receptor (Homo sapiens), P00533 [L858R,T790M]; assay: Inhibition of EGFR L858R/T790M double mutant autophosphorylation in human NCI-H1975 cells after 12 hrs by Western blot analysis; type: cell-based
[10] = tested on: NCI-H1975; assay: Potency index, ratio of gefitinib IC50 to compound IC50 for antiproliferative activity against human NCI-H1975 cells harboring EGFR L858R/T790M double mutant; type: functional
[11] = tested on: NCI-H1975; assay: Effect on total EGFR L858R/T790M double mutant level in human NCI-H1975 cells at 0.1 to 10 uM after 12 hrs by Western blot analysis; type: ADME, cell-based; conditions: nci-h1975, 12 h
[12] = tested on: NCI-H1975; assay: Effect on total AKT level in human NCI-H1975 cells at 0.1 to 10 uM after 12 hrs by Western blot analysis; type: ADME, cell-based; conditions: nci-h1975, 12 h
[13] = tested on: NCI-H1975; assay: Effect on total beta-actin level in human NCI-H1975 cells at 0.1 to 10 uM after 12 hrs by Western blot analysis; type: ADME, cell-based; conditions: nci-h1975, 12 h
[14] = tested on: Epidermal growth factor receptor (Homo sapiens), P00533 [L858R,T790M]; conditions: NCI-H1975, at 1 µM
Description: Inhibition of EGFR L858R/T790M double mutant in human NCI-H1975 cells assessed as reduction in phosphorylated AKT level at 1 uM after 12 hrs by Western blot analysis

Row | SMILES | IC50 [1] [nM] | IC50 [2] [nM] | Ratio IC50 [3] | IC50 [4] [µM] | IC50 [5] [nM] | IC50 [6] [µM] | IC50 [7] [µM] | IC50 [8] [µM] | inhibition [9] | Ratio IC50 [10] | Activity [11] | Activity [12] | Activity [13] | inhibition [14]
1 | COc1cc2ncnc(Nc3ccc(C(=O)NC45CC6CC(CC(C6)C4)C5)c(C#N)c3)c2cc1OCCCN1CCOCC1 | 4.71 | 5.71 | 160 | 3.39 | 20 | 26.2 | 5.94 | 11.6 |  |  |  |  |  | 
2 | COCCOc1cc2ncnc(Nc3ccc(NC(=O)C45CC6CC(CC(C6)C4)C5)c(OC)c3)c2cc1OCCOC | 5.94 | 10.8 |  | 6.62 | > 40 | 33.1 | 7.62 | 5.19 |  |  |  |  |  | 
3 | COCCOc1cc2ncnc(Nc3ccc(NC(=O)C45CC6CC(CC(C6)C4)C5)cc3C)c2cc1OCCOC | 4.52 | 16.5 |  | 4.73 | 25 | 16.6 | 4.58 | 5.34 |  |  |  |  |  | 
4 | COc1cc2ncnc(Nc3cc(C(=O)NC45CC6CC(CC(C6)C4)C5)ccc3C)c2cc1OCCCN1CCOCC1 | 15.4 | 32.7 |  | 5.74 | 14 | 17.1 | 6.73 | 9.04 |  |  |  |  |  | 
5 | COCCOc1cc2ncnc(Nc3cccc(NC(=O)C45CC6CC(CC(C6)C4)C5)c3)c2cc1OCCOC | 1.63 | 14.5 |  | 9.52 | 30 | 18.8 | 3.99 | 11.2 |  |  |  |  |  | 
6 | COCCOc1cc2ncnc(Nc3ccc(NC(=O)C45CC6CC(CC(C6)C4)C5)c(C)c3)c2cc1OCCOC | 2.92 | 66.3 |  | 5.61 | 23 | 21.6 | 8.01 | 8.35 |  |  |  |  |  | 
7 | COc1cc2ncnc(Nc3ccc(C(=O)NC45CC6CC(CC(C6)C4)C5)c(Cl)c3)c2cc1OCCCN1CCOCC1 | 6.42 | 4.62 | 160 | 2.06 | 9 | 5.89 | 2.65 | 5.48 | Dose-dependent effect | 5 | Non-toxic | Non-toxic | Non-toxic | Active
8 | COc1cc2ncnc(Nc3cccc(NC(=O)C45CC6CC(CC(C6)C4)C5)c3)c2cc1OCCCN1CCOCC1 | 3.11 | 159 |  | 15.9 | 35 | 35.9 | 8.86 | 9.94 |  |  |  |  |  | 
9 | COc1cc2ncnc(Nc3ccc(C(=O)NC45CC6CC(CC(C6)C4)C5)cc3)c2cc1OCCCN1CCOCC1 | 2.01 | 5.4 | 160 | 27.9 | 9 | > 40 | 6.11 | 12 |  |  |  |  |  | 
10 | COCCOc1cc2ncnc(Nc3ccc(NC(=O)C45CC6CC(CC(C6)C4)C5)c(C#N)c3)c2cc1OCCOC | 5.01 | 10.4 |  | 4.51 | > 40 | 38.3 | 7.74 | 5.64 |  |  |  |  |  | 
11 | COCCOc1cc2ncnc(Nc3ccc(C(=O)NC45CC6CC(CC(C6)C4)C5)cc3)c2cc1OCCOC | 9.61 | 6.02 | 160 | 1.02 | 38 | 12.4 | 3.42 | 1.25 | Dose-dependent effect |  | Non-toxic | Non-toxic | Non-toxic | Active
12 | COc1cc2ncnc(Nc3cccc(C(=O)NC45CC6CC(CC(C6)C4)C5)c3)c2cc1OCCCN1CCOCC1 | 1.12 | 11.5 |  | 10.5 | 20 | 31 | 11.6 | 23.6 |  |  |  |  |  | 
